In US11214803B2, “Modulators of YAP1 expression” (Ionis Pharmaceuticals, Inc., priority 2019, dated 2022):
Marks after values point to notes of the source that are not given here. Strand notation (5' to 3'): a small letter for the sugar, then the base; units joined by * are phosphorothioate-linked, units joined directly phosphodiester-linked; [ ] holds rarer units or linkages, { } end groups; capitals alone tell only the bases. k = constrained ethyl (cEt); [5mC] = 5-methylcytosine; d = 2'-deoxy (DNA)

Test system: Yap1 mRNA
Experiment: Antisense inhibition of human Yap1 in A-431 cells by cEt gapmers, single dose (Example 2, RTS4814)
Assay type: cell-based
In short: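 Single-dose knockdown screen of 3-10-3 cEt phosphorothioate gapmers at 2,000 nM added by free uptake to A-431 cells. After roughly 48 h, RNA was isolated and Yap1 transcript measured by RT-qPCR, with results given as % UTC.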

[1] = Table 20, Yap1 mRNA, percent of untreated control, 3-10-3 cEt gapmers targeting SEQ ID NO.: 1 and 2
[2] = Table 19, A-431 cells, 5,000 cells per well, free uptake, 2,000 nM modified oligonucleotide, approx. 48 hours, RTS4814, normalized to RIBOGREEN, Yap1 mRNA as percent of untreated control
[3] = Table 33, Yap1 mRNA, percent of untreated control, 3-10-3 cEt gapmers targeting SEQ ID NO.: 1, and 2
[4] = Table 25, Yap1 mRNA as percent of untreated control, 3-10-3 cEt gapmers targeting SEQ ID NO.: 1, and 2
[5] = Yap1 mRNA as percent of untreated control, A-431 cells, 3-10-3 cEt gapmers targeting SEQ ID NO.: 1, and 2, Table 31
[6] = Yap1 mRNA as percent of untreated control, A-431 cells, 3-10-3 cEt gapmers targeting SEQ ID NO.: 1, and 2, Table 30
[7] = Table 6, A-431 cells, 5,000 cells per well, free uptake, 2,000 nM modified oligonucleotide, approx. 48 hours, RTS4814, normalized to RIBOGREEN, Yap1 mRNA relative to untreated control cells
[8] = Table 23, Yap1 mRNA as percent of untreated control, 3-10-3 cEt gapmers, single dose
[9] = Table 21, Yap1 mRNA, percent of untreated control, 3-10-3 cEt gapmers targeting SEQ ID NO.: 1 and 2
[10] = Table 5, A-431 cells, 5,000 cells per well, free uptake, 2,000 nM modified oligonucleotide, approx. 48 hours, RTS4814, normalized to RIBOGREEN, Yap1 mRNA relative to untreated control cells
[11] = Table 18, A-431 cells, 5,000 cells per well, free uptake, 2,000 nM modified oligonucleotide, approx. 48 hours, RTS4814, normalized to RIBOGREEN, Yap1 mRNA as percent of untreated control

Substance: 1075910 (kG*kA*kA*dA*dT*dA*dA*dG*dG*dA*dG*dT*dA*kG*kG*kT; antisense) [Compound 1075910]
- YAP1 (% UTC) [1]: 93 % UTC

Substance: 1075525 (kT*kT*kA*dA*dT*dT*dA*dA*dG*dG*dG*d[5mC]*d[5mC]*k[5mC]*kA*k[5mC]; antisense) [Compound 1075525]
- YAP1 (% UTC) [2]: 130 % UTC

Substance: 1076179 (kA*kA*kT*dT*dA*dG*d[5mC]*d[5mC]*dA*dA*d[5mC]*d[5mC]*dA*k[5mC]*k[5mC]*kT; antisense) [compound 1076179]
- YAP1 (% UTC) [3]: 38 % UTC

Substance: 1074438 (kG*kA*k[5mC]*dA*dT*dG*dA*dA*dG*d[5mC]*dA*dT*d[5mC]*kT*kG*kA; antisense) [Compound 1074438]
- YAP1 (% UTC) [1]: 1* % UTC

Substance: 1076299 (k[5mC]*kG*kT*dT*dA*dT*dA*dA*dA*dG*dA*d[5mC]*d[5mC]*k[5mC]*kA*kA; antisense) [Compound 1076299]
- YAP1 (% UTC) [4]: 3 % UTC

Substance: 1075187 (kG*k[5mC]*k[5mC]*d[5mC]*dA*dA*dG*dG*dA*dG*dG*dA*dA*kA*kT*k[5mC]; antisense) [compound 1075187]
- YAP1 (% UTC) [3]: 77 % UTC

Substance: 1074373 (antisense kG*k[5mC]*kT*dT*dT*dG*dG*dT*dT*dG*dA*dT*dA*kG*kT*kA) [Compound 1074373]
- YAP1 (% UTC) [2]: 26 % UTC

Substance: 1074981 (antisense kT*kT*kA*dT*dT*dG*d[5mC]*d[5mC]*dA*dG*dT*dT*d[5mC]*kT*kT*kG) [Compound 1074981]
- YAP1 (% UTC) [2]: 9 % UTC

Substance: 1075153 (kA*kT*kT*dA*dT*dA*dA*dT*dG*dG*dG*dA*dG*kG*kA*kT; antisense) [compound 1075153]
- YAP1 (% UTC) [5]: 38 % UTC

Substance: 1075536 (kT*kT*kA*dA*dT*dT*dA*d[5mC]*d[5mC]*d[5mC]*dA*dA*dG*kG*kA*k[5mC]; antisense) [compound 1075536]
- YAP1 (% UTC) [6]: 55 % UTC

Substance: 716381 (kT*kG*kT*d[5mC]*dT*dG*dA*dT*d[5mC]*dG*dA*dT*dG*kT*kG*kA; antisense) [Compound 716381]
- YAP1 (% UTC) [7]: 35 % UTC

Substance: 1074633 (antisense kG*kA*kG*dG*d[5mC]*dT*dT*dT*dT*d[5mC]*dA*dT*dA*kG*k[5mC]*kA) [Compound 1074633]
- YAP1 (% UTC) [8]: 78 % UTC

Substance: 1074449 (k[5mC]*kT*kA*dA*dT*dG*dA*dT*dA*dG*d[5mC]*dA*d[5mC]*kT*kA*kG; antisense) [compound 1074449]
- YAP1 (% UTC) [5]: 36 % UTC

Substance: 1074599 (antisense kG*k[5mC]*kT*dA*dA*d[5mC]*dT*d[5mC]*dA*dA*dA*dA*d[5mC]*k[5mC]*kT*kT) [Compound 1074599]
- YAP1 (% UTC) [9]: 12 % UTC

Substance: 1075465 (antisense kG*kA*kT*dT*dT*dA*dT*dT*dG*dA*dA*d[5mC]*dT*kG*kA*kG) [Compound 1075465]
- YAP1 (% UTC) [8]: 7 % UTC

Substance: 1074707 (antisense kT*kT*kT*dA*dA*dT*dG*dG*d[5mC]*dA*dG*d[5mC]*dA*k[5mC]*kG*kG) [compound 1074707]
- YAP1 (% UTC) [3]: 36 % UTC

Substance: 716527 (antisense kA*kG*kT*dA*d[5mC]*dA*dG*dA*dG*dG*dG*d[5mC]*dA*kT*k[5mC]*kG) [Compound 716527]
- YAP1 (% UTC) [10]: 64 % UTC

Substance: 1075888 (antisense kA*k[5mC]*kT*dT*dA*dA*dA*d[5mC]*dT*dT*dG*dA*dG*kG*kG*kA) [compound 1075888]
- YAP1 (% UTC) [6]: 22 % UTC

Substance: 1074921 (antisense k[5mC]*kA*k[5mC]*dT*d[5mC]*dA*dA*dG*dT*dT*dA*d[5mC]*dA*kT*k[5mC]*k[5mC]) [Compound 1074921]
- YAP1 (% UTC) [8]: 65 % UTC

Substance: 1075686 (kG*kT*kA*dA*dT*dT*dA*d[5mC]*dA*dG*dT*dG*dT*k[5mC]*kT*k[5mC]; antisense) [Compound 1075686]
- YAP1 (% UTC) [1]: 10 % UTC

Substance: 1074547 (kG*kA*kG*d[5mC]*dA*d[5mC]*dT*d[5mC]*d[5mC]*d[5mC]*d[5mC]*dT*dA*kG*kG*k[5mC]; antisense) [compound 1074547]
- YAP1 (% UTC) [3]: 71 % UTC

Substance: 1074603 (antisense kT*kT*k[5mC]*d[5mC]*dA*dG*d[5mC]*dT*dA*dA*d[5mC]*dT*d[5mC]*kA*kA*kA) [Compound 1074603]
- YAP1 (% UTC) [4]: 17 % UTC

Substance: 716573 (kA*kG*kT*dT*dA*d[5mC]*dT*dA*d[5mC]*dT*dG*dT*dA*kA*kT*k[5mC]; antisense) [Compound 716573]
- YAP1 (% UTC) [7]: 116 % UTC

Substance: 716498 (kG*kA*kA*dG*dG*dG*d[5mC]*d[5mC]*dA*dA*dA*dA*dT*kA*k[5mC]*kT; antisense) [Compound 716498]
- YAP1 (% UTC) [7]: 92 % UTC

Substance: 1075943 (kG*kT*kA*dT*dA*dT*d[5mC]*dA*dA*dA*d[5mC]*d[5mC]*dT*kT*kT*kT; antisense) [Compound 1075943]
- YAP1 (% UTC) [9]: 15 % UTC

Substance: 1076528 (kT*kT*kA*dT*dA*dA*dT*dG*dG*dG*dA*dG*dG*kA*kT*kT; antisense) [compound 1076528]
- YAP1 (% UTC) [6]: 86 % UTC

Substance: 1076263 (kA*kA*kT*dA*dA*d[5mC]*d[5mC]*dA*dA*dG*dT*dG*dA*kG*kT*kT; antisense) [Compound 1076263]
- YAP1 (% UTC) [9]: 21 % UTC

Substance: 1074247 (antisense kA*kT*k[5mC]*dG*dA*dT*dG*dT*dG*dA*dT*dT*dT*kA*kA*kG) [Compound 1074247]
- YAP1 (% UTC) [9]: 43 % UTC

Substance: 716521 (antisense k[5mC]*kA*kG*d[5mC]*dA*d[5mC]*dG*dG*dT*dG*dT*dA*dA*kG*kA*k[5mC]) [Compound 716521]
- YAP1 (% UTC) [10]: 79 % UTC

Substance: 1075847 (k[5mC]*kT*kT*dT*dA*dT*dA*dG*d[5mC]*dA*dG*dA*dT*kG*k[5mC]*k[5mC]; antisense) [Compound 1075847]
- YAP1 (% UTC) [9]: 14 % UTC

Substance: 716531 (antisense kG*kG*kA*d[5mC]*dA*dT*dA*dA*dA*dA*d[5mC]*dA*dA*kG*kA*kG) [Compound 716531]
- YAP1 (% UTC) [7]: 65 % UTC

Substance: 1074566 (antisense k[5mC]*kA*k[5mC]*dT*dG*dA*dA*dT*dT*d[5mC]*d[5mC]*dA*dA*kT*k[5mC]*kG) [Compound 1074566]
- YAP1 (% UTC) [1]: 3 % UTC

Substance: 1076103 (kG*k[5mC]*kT*dT*dA*dA*d[5mC]*dA*dA*dA*dT*d[5mC]*dA*kG*k[5mC]*k[5mC]; antisense) [Compound 1076103]
- YAP1 (% UTC) [9]: 79 % UTC

Substance: 1075121 (kA*kA*kA*dA*dT*dT*dA*dG*d[5mC]*d[5mC]*dT*dA*d[5mC]*k[5mC]*kA*k[5mC]; antisense) [compound 1075121]
- YAP1 (% UTC) [5]: 40 % UTC

Substance: 1075817 (k[5mC]*k[5mC]*kT*dA*dA*dA*dG*dA*dA*dG*dT*d[5mC]*dT*kT*kG*kG; antisense) [Compound 1075817]
- YAP1 (% UTC) [8]: 100 % UTC

Substance: 716393 (kT*kT*kG*d[5mC]*dT*dG*d[5mC]*dT*dG*dG*dT*dT*dG*kG*kA*kG; antisense) [Compound 716393]
- YAP1 (% UTC) [7]: 46 % UTC

Substance: 1075219 (k[5mC]*k[5mC]*kT*dT*dA*dA*d[5mC]*dA*d[5mC]*dT*dG*dG*dT*kA*kA*kG; antisense) [compound 1075219]
- YAP1 (% UTC) [3]: 117 % UTC

Substance: 1075908 (kA*kA*kT*dA*dA*dG*dG*dA*dG*dT*dA*dG*dG*kT*kG*kG; antisense) [Compound 1075908]
- YAP1 (% UTC) [11]: 50 % UTC

Substance: 1075241 (antisense kG*kA*kT*dA*dA*dT*dT*dA*d[5mC]*dT*dA*dA*d[5mC]*kT*kG*kA) [Compound 1075241]
- YAP1 (% UTC) [8]: 31 % UTC

Substance: 716416 (kA*kA*kG*dG*dA*dT*dG*dT*d[5mC]*dA*dG*dA*dA*k[5mC]*kT*k[5mC]; antisense) [Compound 716416]
- YAP1 (% UTC) [10]: 45 % UTC

Substance: 1075571 (antisense k[5mC]*kA*kA*dA*dT*dA*dG*dA*dT*dA*d[5mC]*dT*dA*kA*kG*k[5mC]) [compound 1075571]
- YAP1 (% UTC) [3]: 54 % UTC

Substance: 716383 (kT*k[5mC]*kA*dT*d[5mC]*dA*dT*dA*dT*dT*d[5mC]*dT*dG*k[5mC]*kT*kG; antisense) [Compound 716383]
- YAP1 (% UTC) [10]: 98 % UTC

Substance: 716547 (kG*kG*kT*dA*dT*dG*dA*dA*dT*dT*d[5mC]*dT*dG*kA*kA*kT; antisense) [Compound 716547]
- YAP1 (% UTC) (A-431 cells, 5,000 cells per well, free uptake, 2,000 nM modified oligonucleotide, approx. 48 hours, RTS4814, normalized to RIBOGREEN, Table 4, asterisk (*) = targets amplicon region of primer probe set): 44 % UTC

Substance: 1075301 (k[5mC]*kA*kG*d[5mC]*dA*dA*d[5mC]*dA*d[5mC]*d[5mC]*dT*dA*dA*kG*kG*kA; antisense) [Compound 1075301]
- YAP1 (% UTC) [2]: 92 % UTC

Substance: 1074416 (k[5mC]*kT*kT*dT*dA*dG*dA*dG*d[5mC]*d[5mC]*dA*dA*d[5mC]*kT*kG*kT; antisense) [compound 1074416]
- YAP1 (% UTC) [6]: 9 % UTC

Substance: 1075268 (antisense kT*kA*kT*dT*dA*dA*d[5mC]*d[5mC]*dT*dG*dG*dA*dG*kA*kG*kT) [Compound 1075268]
- YAP1 (% UTC) [11]: 47 % UTC

Substance: 1074827 (kT*kA*kA*dA*dA*dT*d[5mC]*d[5mC]*dA*d[5mC]*d[5mC]*dT*dG*kA*kG*k[5mC]; antisense) [Compound 1074827]
- YAP1 (% UTC) [4]: 39 % UTC
